Measured values: patent US10898419B2, “Compounds for promoting hair growth and/or inhibiting or delaying hair loss in humans, and compositions for such uses” (GIULIANI S.P.A., priority 2016, dated 2021)

Assays:
[1] = molecular target: T1, olfactory receptor OR2AT4 (Homo sapiens, UniProt A6NND4); conditions: according to Busse et al.; cited from earlier work
T1 sequence (A6NND4 1-320): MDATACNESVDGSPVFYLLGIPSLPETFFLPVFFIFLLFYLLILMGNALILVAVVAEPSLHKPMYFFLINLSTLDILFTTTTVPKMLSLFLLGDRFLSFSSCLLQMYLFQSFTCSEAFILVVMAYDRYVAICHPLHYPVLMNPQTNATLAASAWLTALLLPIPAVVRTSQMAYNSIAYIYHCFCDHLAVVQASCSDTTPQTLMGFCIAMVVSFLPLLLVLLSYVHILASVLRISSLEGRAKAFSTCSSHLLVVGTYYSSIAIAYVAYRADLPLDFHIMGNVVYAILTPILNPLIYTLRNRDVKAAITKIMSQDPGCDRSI

[2] = test system: microdissected human scalp HFs; assay: Hair shaft elongation in HF organ culture; type: cell-based; conditions: 500 μM, cultured microdissected HFs from two donors, compared to vehicle
Experimental: (§1) Then, in order to assess whether stimulation of OR2AT4 can influence human hair growth, microdissected HFs were treated with sandal pentanol at a concentration of 500 μM, as the agonist and a hair shaft elongation measurement was performed (see Philpott et al., 1990). In addition, a kinase assay was conducted in order to identify which signalling pathways are involved in the specific stimulation of OR2AT4 by sandal pentanol.
Human scalp samples were obtained after face-lifting procedure and used at the same day for microdissecting human anagen VI scalp HFs. […]
(§2) Phenirat was added 30 min before sandal pentanol. Hair shaft elongation was measured daily using an inverted binocular microscope (Philpott et al., 1990) and culture medium was replaced every second day. […]
To check whether the activation of OR2AT4 can influence the hair cycle of human HF, microdissected human HFs were specifically stimulated with the potential agonist, sandal pentanol. The effect of the sandal pentanol treatment was evaluated by measuring hair shaft elongation compared to vehicle.
HF elongation was measured in cultured microdissected HFs. […]

[3] = test system: keratinocytes; conditions: long-term stimulation, in vitro wound scratch assay, Busse et al.; cited from earlier work
[4] = test system: apoptotic signalling pathway; assay: Kinase assay of signalling pathways after OR2AT4 stimulation; type: cell-based, human; conditions: specific stimulation of OR2AT4 in microdissected HFs
Experimental: as §1

[5] = test system: microdissected human scalp HFs; assay: Hair cycle score / staging (catagen induction) in HF organ culture; type: cell-based; conditions: 500 μM (Phenirat 1:1), 6 days of culture, compared to vehicle
Experimental: (§3) HFs were treated with either the vehicle, sandal pentanol, Phenirat or a mixture of sandal pentanol and Phenirat. To analyse modifications of the hair cycle, Ki67/TUNEL were performed and used to evaluate hair cycle score and hair matrix keratinocytes proliferation and apoptosis.
Human scalp samples were obtained after face-lifting procedure and used at the same day for microdissecting human anagen VI scalp HFs. Microdissected human scalp HFs were cultured at 37° C. with 5% CO2 in a minimal media of William's E media (Gibco, Life technologies) supplemented with 2 mM of L-glutamine (Gibco), 10 ng/ml hydrocortisone (Sigma-Aldrich), 10 μg/ml insulin (Sigma-Aldrich) and 1% penicillin/streptomycin mix (Gibco) (WEM) as previously described (Philpott, 1990; Kloepper, 2010; Langan et al, 2015). […]
as §2
To investigate the specificity of the effect on hair growth of OR2AT4 stimulation by sandal pentanol, microdissected HFs were cultured with sandal pentanol and/or Phenirat, and hair cycle performed staging analysis as previously described (Kloepper, 2010; Langan et al, 2015). Hair cycle score was measured both in treated and vehicle HFs after 6 days of culture. […]

[6] = test system: TGFβ2; assay: TGFβ2 immunofluorescence in ORS keratinocytes of cultured HFs; type: cell-based, human; conditions: 500 μM (Phenirat 1:1), 6 day-treatment, proximal ORS keratinocytes, compared to vehicle
Experimental: In addition, TGFβ2, a potent catagen inducer, was investigated with reference to the same above compounds.
OCT embedded samples were sectioned (6 μm thickness) with a cryostat. Sections were fixed in 4% paraformaldehyde, pre-incubated with 10% of goat serum (for OR2AT4) or 5% goat serum+0.3% Tritton X-100 (for cleaved-caspase 3) and incubated with the corresponding primary antibody at 4° C. overnight ( 1/100 for OR2AT4 and 1/400 for cleaved-caspase 3). Secondary antibody incubation was performed at RT for 45 min. Counterstaining with DAPI (1 μg/mL) was performed to visualize nuclei. For TGFb2, samples were fixed in acetone and the endogenous peroxidases were blocked with 3% of H2O2. This step was followed by an avidin-biotin blocking step and a preincubation with TNB buffer (Tris HCl+NaCl+Casein). […] Images were taken using a Keyence fluorescence microscope (Osaka, Japan) maintaining a constant set exposure time throughout imaging for further analysis. […]
Staining intensity was evaluated in well-defined reference areas by quantitative (immuno-)histomorphometry, as previously described (Bertolini et al., 2014) using NIH IMAGE software (NIH, Bethesda, Md., USA). […]
TGFβ2 expression was quantified using Image J. Mean±SEM, n=14-22 HFs from 2 patients, Kruskal-Wallis and Dunn's multiple comparisons test as post hoc test, *p<0.05, ***p<0.001, and Mann-Whitney test, ns. […]

[7] = test system: cultured human keratinocytes; conditions: Busse et al.; cited from earlier work
[8] = test system: human skin organ cultures; conditions: Busse et al.; cited from earlier work
[9] = test system: hair matrix keratinocytes; assay: Ki67/TUNEL staining of hair matrix keratinocytes in HF organ culture; type: cell-based, human; conditions: 500 μM (Phenirat 1:1), 6 day-culture, compared to vehicle
Experimental: as §3
OCT embedded samples were sectioned (6 μm thickness) with a cryostat. Sections were fixed in 4% paraformaldehyde, pre-incubated with 10% of goat serum (for OR2AT4) or 5% goat serum+0.3% Tritton X-100 (for cleaved-caspase 3) and incubated with the corresponding primary antibody at 4° C. overnight ( 1/100 for OR2AT4 and 1/400 for cleaved-caspase 3). Secondary antibody incubation was performed at RT for 45 min. Counterstaining with DAPI (1 μg/mL) was performed to visualize nuclei. For TGFb2, samples were fixed in acetone and the endogenous peroxidases were blocked with 3% of H2O2. This step was followed by an avidin-biotin blocking step and a preincubation with TNB buffer (Tris HCl+NaCl+Casein). The corresponding primary antibody was incubated at 4° C. overnight ( 1/1000 for TGFb2). Secondary antibody incubation was performed at RT for 45 min before using the Tyramide signal amplification kit (Perkin Elmer). Counterstaining with DAPI was performed to visualize nuclei. To stain apoptotic and proliferating cells, we have used the apoptag kit (Merck Milipore) following manufacture's protocol followed by Ki67 staining. The primary antibody was incubated overnight (Ki67, 1/20) after the TdT-enzyme step. The secondary antibody was incubated for 45 min at RT after the fluorescent-labelled anti-Digoxigenin step of the apoptag kit. Counterstaining with DAPI was performed to visualize nuclei. Negative controls were performed by omitting the primary antibody. Images were taken using a Keyence fluorescence microscope (Osaka, Japan) maintaining a constant set exposure time throughout imaging for further analysis.
After 24 h of incubation, WEM medium was replaced and HFs were treated with the corresponding substances for 6 days following experimental conditions. HFs were treated either with vehicle (0.1% DMSO), sandal pentanol (500 μM), Phenirat (in a ratio 1:1 to the agonist), or a mixture sandal pentanol+Phenirat.
Staining intensity was evaluated in well-defined reference areas by quantitative (immuno-)histomorphometry, as previously described (Bertolini et al., 2014) using NIH IMAGE software (NIH, Bethesda, Md., USA).
With reference to the evidence of FIG. 4, to investigate whether sandal pentanol influences hair matrix keratinocytes proliferation and apoptosis, Ki67/TUNEL staining was performed. Proliferating (diagram of FIG. 4A) and apoptotic (diagram of FIG. 4B) hair matrix keratinocytes were counted in the hair matrix of treated and vehicle HFs. […]

Row | SMILES | activity at olfactory receptor OR2AT4 [1] | hair shaft elongation [2] | cell proliferation, migration and regeneration of keratinocyte monolayers [3] | effect on apoptotic signalling pathway [4] | catagen induction / anagen prolongation (hair cycle score) [5] | TGFβ2 expression at the protein level [6] | Ca2+ signals [7] | epidermal wound healing [8] | hair matrix keratinocyte apoptosis (TUNEL) [9] | hair matrix keratinocyte proliferation (Ki67) [9]
1 | CC1=CCC(CCC(C)C(C)O)C1(C)C (centres unmarked) [sandal pentanol, 3-methyl-5-(2,2,3-trimethylcyclopent-3-en-1-yl)pentan-2-ol] | agonists | stimulates hair shaft elongation | positively affects | Inhibits Apoptotic Signalling Pathway | delayed catagen induction | significant decrease | induce Ca^2+ signals | enhances epidermal wound healing | significantly decreased | did not change
2 | CC1=CC[C@@H](CC[C@@H](C)CO)C1(C)C (stereo in doubt) [brahmanol, 2-Methyl-4-(2,2,3-trimethyl-3-cyclopenten-1-yl)butanol] | agonists |  |  |  |  |  | induce Ca^2+ signals |  |  | 
3 | CC(C)C(=O)OCCOc1ccccc1 [Phenirat, phenoxyethyl isobutyrate, reference compound] | specific antagonist |  |  |  | did not prolong anagen | no change |  |  | this effect is not obtained | did not change
